Read-outs that look alike come from different tables or passages of the source.
What was measured:
[1] = system: HCT116 cells; test: Antiproliferation assay, Cell Titer Glo, 72 hours; type: cell-based
Description: HCT116 cells were plated in 384-well plates at 750 cells/well in 50 ul fresh media (McCoy's 5A+10% FBS+1% Penn/Strep) and treated with 0.1 μl candidate compounds in four-fold dilution series using the Janus pinner. Cells were incubated with compounds for 72 hours in 37° C. 5% CO2. Anti-proliferative effects of these compounds were assessed 72 hours after compound addition using Cell Titer Glo (Promega cat #G7571) as described in product manual by luminescence measurements using an Envision platereader. All proliferation assays were performed in biological quadruplicate. IC50 values were determined using a non-linear regression curve fit in GraphPad Prism 6.

[2] = target: Cdk14/CycY (Homo sapiens (Human), UniProt O94921); test: Lanthascreen Eu kinase binding assay for Cdk14/CycY with 30 minute pre-incubation; conditions: 30 minute pre-incubation of kinase with compound; read-out: IC50 CDK14 binding by Lanthascreen
Description: Lanthascreen Eu kinase binding assays were conducted for Cdk14/CycY largely as performed in the commercial assay service by Life Technologies, but included a 30 minute pre-incubation step of the kinase with candidate compounds to facilitate covalent bond formation.

Cdk14/CycY, sequence (O94921 whole entry): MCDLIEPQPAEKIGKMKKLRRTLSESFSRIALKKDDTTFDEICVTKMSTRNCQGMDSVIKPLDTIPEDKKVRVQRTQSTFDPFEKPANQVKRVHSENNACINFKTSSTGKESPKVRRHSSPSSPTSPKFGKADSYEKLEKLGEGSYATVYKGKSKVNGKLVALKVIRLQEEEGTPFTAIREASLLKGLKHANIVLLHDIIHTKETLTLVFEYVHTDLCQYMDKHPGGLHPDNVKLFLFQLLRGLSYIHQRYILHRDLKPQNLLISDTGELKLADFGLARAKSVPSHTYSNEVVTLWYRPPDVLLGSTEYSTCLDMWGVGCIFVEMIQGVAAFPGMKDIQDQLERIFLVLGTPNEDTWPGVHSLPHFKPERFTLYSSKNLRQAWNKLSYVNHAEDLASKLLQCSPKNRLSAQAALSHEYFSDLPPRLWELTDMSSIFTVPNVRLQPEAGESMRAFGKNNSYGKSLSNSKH
Cdk14/CycY, sequence (Q8ND76 whole entry partner): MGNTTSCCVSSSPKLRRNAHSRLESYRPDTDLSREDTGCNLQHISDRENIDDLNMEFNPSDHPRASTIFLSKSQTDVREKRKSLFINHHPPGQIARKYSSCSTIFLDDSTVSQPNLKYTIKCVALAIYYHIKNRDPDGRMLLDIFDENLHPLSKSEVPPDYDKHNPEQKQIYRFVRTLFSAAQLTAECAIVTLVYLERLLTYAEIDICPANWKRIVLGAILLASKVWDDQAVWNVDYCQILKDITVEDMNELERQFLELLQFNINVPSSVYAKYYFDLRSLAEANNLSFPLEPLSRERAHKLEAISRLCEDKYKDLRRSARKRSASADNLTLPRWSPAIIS

IC50 ([1]; Homo sapiens, HCT-116, 72 h) [µM]	IC50 [2] [µM]	IC50 [1] [µM]	SMILES
9	–	–	C=CC(=O)Nc1cccc(S(=O)(=O)N2CCC(NC(=O)c3nn(C)cc3NC(=O)c3c(Cl)cccc3Cl)CC2)c1 [FMF-04-180-1, N-(1-((3-acrylamidophenyl)sulfonyl)piperidin-4-yl)-4-(2,6-dichlorobenzamido)-1-methyl-1H-pyrazole-3-carboxamide]
1.06	0.208	–	CN(C)C/C=C/C(=O)N1CCC(NC(=O)c2n[nH]cc2NC(=O)c2c(Cl)cccc2Cl)CC1 [FMF-03-177-2, (E)-4-(2,6-dichlorobenzamido)-N-(1-(4-(dimethylamino)but-2-enoyl)piperidin-4-yl)-1H-pyrazole-3-carboxamide]
0.395	0.082	–	CN(C)C/C=C/C(=O)Nc1ccc(NC(=O)c2n[nH]cc2NC(=O)c2c(Cl)cccc2Cl)cc1 [FMF-03-182-2, (E)-4-(2,6-dichlorobenzamido)-N-(4-(4-(dimethylamino)but-2-enamido)phenyl)-1H-pyrazole-3-carboxamide]
6.2	0.45	–	C=CC(=O)Nc1cccc(S(=O)(=O)N2CC[C@H](NC(=O)c3n[nH]cc3NC(=O)c3c(Cl)cccc3Cl)C2)c1 [FMF-05-068-1, (S)—N-(1-((3-acrylamidophenyl)sulfonyl)pyrrolidin-3-yl)-4-(2,6-dichlorobenzamido)-1H-pyrazole-3-carboxamide]
> 10	–	–	CN(C)C/C=C/C(=O)Nc1cccc(S(=O)(=O)N2CCC(NC(=O)c3nn(C)cc3NC(=O)c3c(Cl)cccc3Cl)CC2)c1 [FMF-04-180-2, (E)-4-(2,6-dichlorobenzamido)-N-(1-((3-(4-(dimethylamino)but-2-enamido)phenyl)sulfonyl)piperidin-4-yl)-1-methyl-1H-pyrazole-3-carboxamide]
> 10	0.308	–	CN(C)C/C=C/C(=O)Nc1cccc(S(=O)(=O)N2CC[C@H](NC(=O)c3n[nH]cc3NC(=O)c3c(Cl)cccc3Cl)C2)c1 [FMF-05-068-2, (S,E)-4-(2,6-dichlorobenzamido)-N-(1-((3-(4-(dimethylamino)but-2-enamido)phenyl)sulfonyl)pyrrolidin-3-yl)-1H-pyrazole-3-carboxamide]
0.0009	–	–	C=CC(=O)Nc1cccc(CN2CCC(NC(=O)c3n[nH]cc3NC(=O)c3c(Cl)cccc3Cl)CC2)c1 [FMF-03-200-1, N-(1-(3-acrylamidobenzyl)piperidin-4-yl)-4-(2,6-dichlorobenzamido)-1H-pyrazole-3-carboxamide]
0.031	0.062	–	C=CC(=O)Nc1ccc(S(=O)(=O)N2CCC(NC(=O)c3n[nH]cc3NC(=O)c3c(Cl)cccc3Cl)CC2)cc1 [FMF-03-197-1, N-(1-((4-acrylamidophenyl)sulfonyl)piperidin-4-yl)-4-(2,6-dichlorobenzamido)-1H-pyrazole-3-carboxamide]
< 0.001	0.282	–	C=CC(=O)Nc1cccc(CN2CC[C@@H](NC(=O)c3n[nH]cc3NC(=O)c3c(Cl)cccc3Cl)C2)c1 [FMF-05-071-1, (R)—N-(1-(3-acrylamidobenzyl)pyrrolidin-3-yl)-4-(2,6-dichlorobenzamido)-1H-pyrazole-3-carboxamide]
0.027	0.15	–	C=CC(=O)Nc1cccc(CN2CC[C@H](NC(=O)c3n[nH]cc3NC(=O)c3c(Cl)cccc3Cl)C2)c1 [FMF-05-069-1, (S)—N-(1-(3-acrylamidobenzyl)pyrrolidin-3-yl)-4-(2,6-dichlorobenzamido)-1H-pyrazole-3-carboxamide]
–	1.1	0.826	C=CC(=O)Nc1cccc(N2CCC(NC(=O)c3n[nH]cc3NC(=O)c3c(Cl)cccc3Cl)C2)c1 (stereo in doubt) [FMF-05-086-1, (S)—N-(1-(3-acrylamidophenyl)pyrrolidin-3-yl)-4-(2,6-dichlorobenzamido)-1H-pyrazole-3-carboxamide]
0.341	0.401	–	C=CC(=O)N1CCC(NC(=O)c2n[nH]cc2NC(=O)c2c(Cl)cccc2Cl)CC1 [FMF-03-177-1, N-(1-acryloylpiperidin-4-yl)-4-(2,6-dichlorobenzamido)-1H-pyrazole-3-carboxamide]
0.093	–	–	C=CC(=O)Nc1cccc(N2CCC(NC(=O)c3n[nH]cc3NC(=O)c3c(Cl)cccc3Cl)CC2)c1 [FMF-05-085-1, N-(1-(3-acrylamidophenyl)piperidin-4-yl)-4-(2,6-dichlorobenzamido)-1H-pyrazole-3-carboxamide]
> 10	–	–	CN(C)C/C=C/C(=O)Nc1ccc(S(=O)(=O)N2CCC[C@@H](NC(=O)c3n[nH]cc3NC(=O)c3c(Cl)cccc3Cl)C2)cc1 [FMF-04-056-2, (R,E)-4-(2,6-dichlorobenzamido)-N-(1-((4-(4-(dimethylamino)but-2-enamido)phenyl)sulfonyl)piperidin-3-yl)-1H-pyrazole-3-carboxamide]
0.156	–	–	CN(C)C/C=C/C(=O)Nc1cccc(CN2CCC(NC(=O)c3n[nH]cc3NC(=O)c3c(Cl)cc(Cl)cc3Cl)CC2)c1 [FMF-04-158-2, (E)-N-(1-(3-(4-(dimethylamino)but-2-enamido)benzyl)piperidin-4-yl)-4-(2,4,6-trichlorobenzamido)-1H-pyrazole-3-carboxamide]
0.115	–	–	C=CC(=O)Nc1cccc(S(=O)(=O)N2CCC(NC(=O)c3n[nH]cc3NC(=O)c3c(Cl)cccc3OC)CC2)c1 [FMF-04-107-1, N-(1-((3-acrylamidophenyl)sulfonyl)piperidin-4-yl)-4-(2-chloro-6-methoxybenzamido)-1H-pyrazole-3-carboxamide]
> 10	–	–	CN(C)C/C=C/C(=O)Nc1cccc(CNC(=O)c2n[nH]cc2NC(=O)c2c(Cl)cccc2Cl)c1 [FMF-05-067-2, (E)-4-(2,6-dichlorobenzamido)-N-(3-(4-(dimethylamino)but-2-enamido)benzyl)-1H-pyrazole-3-carboxamide]
–	> 1	–	C=CC(=O)Nc1cccc(C(=O)Nc2ccc(NC(=O)c3n[nH]cc3NC(=O)c3c(Cl)cccc3Cl)c(C)c2)c1 [FMF-04-085-1, N-(4-(3-acrylamidobenzamido)-2-methylphenyl)-4-(2,6-dichlorobenzamido)-1H-pyrazole-3-carboxamide]
–	0.008	–	CN(C/C=C/C(=O)Nc1cccc(S(=O)(=O)N2CCC(NC(=O)c3n[nH]cc3NC(=O)c3c(Cl)cccc3Cl)CC2)c1)CCC(=O)NCCOCCOCCOCCNC(=O)CCCC[C@@H]1SC[C@@H]2NC(=O)N[C@@H]21 [FMF-04-153-1, 4-(2,6-dichlorobenzamido)-N-(1-((3-((E)-5-methyl-8,22-dioxo-26-((3aS,4S,6aR)-2-oxohexahydro-1H-thieno[3,4-d]imidazol-4-yl)-12,15,18-trioxa-5,9,21-triazahexacos-2-enamido)phenyl)sulfonyl)piperidin-4-yl)-1H-pyrazole-3-carboxamide]
–	0.046	–	COc1cccc(Cl)c1C(=O)Nc1c[nH]nc1C(=O)NC1CCN(S(=O)(=O)c2cccc(NC(=O)/C=C/CN(C)CCC(=O)NCCOCCOCCOCCNC(=O)CCCCC[C@H]3NC(=O)N[C@H]3C)c2)CC1 [FMF-05-035-1, 4-(2-chloro-6-methoxybenzamido)-N-(1-((3-((E)-5-methyl-27-((4R,5S)—5-methyl-2-oxoimidazolidin-4-yl)-8,22-dioxo-12,15,18-trioxa-5,9,21-triazaheptacos-2-enamido)phenyl)sulfonyl)piperidin-4-yl)-1H-pyrazole-3-carboxamide]

SMILES	IC50 ([1]; Homo sapiens, HCT-116, 72 h) [µM]	IC50 [2] [µM]	IC50 [1] [µM]
CN(/C=C/C(=O)Nc1cccc(CN2CCC(NC(=O)c3n[nH]cc3NC(=O)c3c(Cl)cccc3Cl)CC2)c1)CCCCC1C[C@@H]2NC(=O)N[C@@H]2S1 (stereo partly drawn) [FMF-04-131-1]	–	0.049	–
